From article PMC10557146 (2023)

System: htel, d[AG3(TTAG3)3]; htel(K) (hybrid in K+); htel(Na) (antiparallel in Na+) (DNA, G4) AGGGTTAGGGTTAGGGTTAGGG
Experiment: visible absorption titration, 380 nm, Bard fit
Conditions: pH 7, 298 K, per G-tetrad

Q: Which Kb (K+ (100 mM KCl), 50 mM phosphate, hybrid htel(K), site size 1.8, 7.2 μM complex) does the source give for `N#Cc1cc2nc3c4cccnc4c4ncccc4c3nc2cc1C#N.[Ru+2].c1cnc2c(c1)ccc1cccnc12.c1cnc2c(c1)ccc1cccnc12` here?
A: The Kb was 1.1(±0.6) × 10^7 M^-1.

Q: And the Kb (K+ (100 mM KCl), phosphate buffer, hybrid htel(K), site size 1.5)?
A: The Kb was 4.2(±0.5) × 10^5 M^-1.

Q: And the Kb (Na+ (sodium phosphate; 100 mM NaCl in TRIR samples), phosphate buffer, antiparallel htel(Na), site size 1.1)?
A: Its Kb is 1.9(±0.7) × 10^5 M^-1.

Q: What about the Kb (Na+ (sodium phosphate; 100 mM NaCl in TRIR samples), phosphate buffer, antiparallel htel(Na), site size 1.5) of the same compound?
A: The Kb was 2.2(±0.3) × 10^6 M^-1.
